In patent US20210206817A1, “Metabolically Stable Apelin Analogs in the Treatment of Disease Mediated by the Apelin Receptor” (priority 2014, published 2021):
Several values for one entry are separate records, joined by “and”; a condition that tells them apart may be missing. Equal values may be shown once. Read-outs that look alike come from different tables or passages of the source. Where a SMILES comes first, the peptide text is derived from it.

Columns and labels:
rat apelin receptor-EGFP [1] = biological target: T1, rat apelin receptor-EGFP (Rattus norvegicus, UniProt Q9JHG3); assay: Apelin receptor-EGFP internalization, confocal microscopy; format: cell-based
T1 construct: expressed in transfected cells
T1 sequence (Q9JHG3 1-377): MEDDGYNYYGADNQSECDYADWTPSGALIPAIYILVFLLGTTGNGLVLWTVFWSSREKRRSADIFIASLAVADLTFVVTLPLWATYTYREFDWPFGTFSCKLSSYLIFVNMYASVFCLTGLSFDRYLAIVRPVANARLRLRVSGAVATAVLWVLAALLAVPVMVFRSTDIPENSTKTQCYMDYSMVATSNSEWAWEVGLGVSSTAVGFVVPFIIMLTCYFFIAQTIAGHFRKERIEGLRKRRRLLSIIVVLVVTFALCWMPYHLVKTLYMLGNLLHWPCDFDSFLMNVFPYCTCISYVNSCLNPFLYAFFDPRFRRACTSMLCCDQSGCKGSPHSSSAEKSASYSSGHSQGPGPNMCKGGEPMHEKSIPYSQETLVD
Description: The internalization assay was performed as described previously with CHO cells stably expressing the rat apelin receptor-EGFP (43). […] Cells were then mounted in Aquapolymount (Polysciences, Warrington, Pa., USA) for confocal microscopic analysis (Sec (42) for details).

[2] = system: rat aortic rings precontracted by noradrenaline (NA); assay: Isometric tension of aortic rings precontracted by noradrenaline; conditions: precontraction 3×10^−6 M NA
Description: The experiments were performed in rat aortic rings as previously described (39). […] The aortas were cleaned of excess connective tissue and fat and cut into rings of approximately 3-4 mm in length. Special care was taken to avoid damaging the luminal surface of the endothelium. […] One end of the aortic ring was connected to a tissue holder and the other to an isometric force transducer (EMKA Technologies, Paris, France). […] During equilibration period, the rings were washed every 30 min. Then, a first relaxation to acetylcholine (Ach, 10^−4 mol/L) was implemented to check the integrity or the absence of the endothelium in rings precontracted with NA (3×10^−8 mol/L). After rinsing with PSS to baseline tension, rings were equilibrated for 90 min. […] Each concentration of the drug was added at the maximal effect of the precedent concentration. The concentration-response curves were continuously recorded on a PC by means of IOX v 2.4 (EMKA Technologies, Paris) for further analysis (Datanalyst v2.1, EMKA Technologies, Paris).

rat apelin receptor-EGFP [3] = biological target: T1, rat apelin receptor-EGFP; assay: [125I]pE13F radioligand binding on CHO membrane preparations
Description: Crude membrane preparation from CHO stably expressing the wild-type rat apelin receptor-EGFP, were prepared as previously described (39). […] The reaction was stopped by adding ice-cold binding buffer and filtered through glass microfiber filters (Whatman GF/C filters). Radioactivity was counted in Wizard 1470 Wallac gamma counter (Perkin Elmer, Turku, Finland).

rat apelin receptor-EGFP [4] = biological target: T1, rat apelin receptor-EGFP; assay: Inhibition of forskolin-induced cAMP production (HTRF); format: cell-based
Description: cAMP was quantified using the cAMP dynamic 2 assay kit (Cisbio Bioassays, Codolet, France) based on homogeneous time-resolved fluorescence (HTRF) technology. The stimulation was done in the stimulation buffer (HBSS, 5 mM Hepes, 0.1% BSA stabilizer, 1 mM IBMX, pH 7.4). Briefly, 2,000/well CHO cells stably expressing the rat apelin receptor-EGFP were added into 384-well plate and stimulated with 10^−6 M forskolin (FSK) and increasing concentrations (10^−14 to 10^−4 M) of apelins or its analogs for 30 min at room temperature. Cells were then lyzed, and cAMP levels were determined following manufacturer instructions.

in vitro = conditions: mouse, plasma
Description: For each compound, the stock solution (100 μM in water) was diluted in plasma to a final incubation concentration of 5 μM. The incubation at 37° C. was stopped respectively at to and 4 h by adding one volume of ice cold acetonitrile containing 0.1% trifluoroacetic acid. The sample was vortexed for 1 min and then centrifuged at 4° C. before LC-MS injection of the supernatant. Analyses were performed on a Kinetex RP-C18 column (2.6 μm, 100 Å, 50×4.6 mm) using a linear gradient (solvent B in solvent A, solvent A: water/0.05% TFA; solvent B: acetonitrile; flow rate of 2 mL·min^−1: detection at 358 nm). The percentage of remaining test compound relative to t0 was measured by monitoring the peak area of the chromatogram.

rat apelin receptor-EGFP [5] = biological target: T1, rat apelin receptor-EGFP; assay: ERK1/2 phosphorylation (Alphascreen); format: cell-based
Excerpt: ERK1/2 phosphorylation was then monitored by Alphascreen technology.

[6] = system: rat glomerular arterioles precontracted by Angiotensin II (AngII); assay: Diameter of glomerular arterioles precontracted by angiotensin II
Description: The left kidney of male rats was prepared for microdissection of arterioles as previously described (44). Glomerular arterioles were isolated under stereomicroscopic observation. The afferent and muscular efferent arterioles were isolated with the glomerulus and identify according their morphology and localization in the inner renal cortex as previously described by Helou et al. […] For these experiments afferent and muscular efferent arterioles were microdissected attached to the gomeruli. […] Arteriolar diameters were measured with Adobe Photoshop CS. Diameters were measured on a distance equal to about 100 μm upstream of the glomerulus and triplicate were performed for each arteriole. Calibration was made using a stage micrometer. The average diameter for each experimental condition was used for statistical analysis.

[7] = system: water-deprived or euhydrated mice; assay: Plasma AVP after i.c.v. injection (RIA); format: in vivo, mouse
Description: Animals were killed 1 min after the injection, and trunk blood (0.5-1 ml) was collected in chilled tubes containing 50 μl of 0.3 M EDTA pH 7.4. […] RIA kit (Peninsula Laboratories International Inc, San Carlo, USA).

[8] = system: anaesthesized normotensive Wistar rats; assay: Arterial blood pressure after i.v. injection; format: in vivo, rat
Description: The resulting solution was administered to the rats via a catheter inserted into the right femoral vein, and was immediately followed by 0.2 ml Krebs buffer alone to flush the venous catheter. An additional catheter was inserted into the right femoral artery, as previously described (47), for the monitoring of mean arterial blood pressure (MBP) as previously described (48). The arterial catheter was connected to a COBE CDX III pressure transducer (Phymep, Paris, France) linked to the Maclab system (Phymep, Paris, France). HR measurement was triggered by the blood pressure signal. BP was continuously recorded throughout the experiment. […] Mean AUC for each group were then calculated. Unpaired Student's t test was used to determine whether BP observed in response to substances administered […].) has statistically significant difference.

[9] = system: isolated perfused rat heart; assay: Isolated perfused rat heart, cardiac contractility
Description: Animals were anesthetized with pentobarbital sodium (50 mg/kg intraperitoneally). Heparin (200 IU/kg) was administrated into the femoral vein. Hearts were excised quickly and arrested in ice-cold Krebs-Henseleit solution containing (mM): […] […] Temperature was continuously monitored by a thermoprobe inserted into the right atrium. Hearts beat spontaneously under the sinus rhythm. […] The maximal rate of rise of left ventricular pressure (dP/dtmax) and heart rate were derived from left ventricular pressure. After 20-minutes equilibration period, the hearts were treated by drugs added to the perfusate with an infusion pump (Harvard Apparatus Pump 11) at rate of 100 μL/min for 30 minutes.

AT1 receptor = assay: Selectivity towards the AT1 receptor; format: binding
[10] = 10^−6 M forskolin, read-out: IC50 inhibition of forskolin-induced cAMP production
[11] = Table 2, read-out: cAMP production IC50
[12] = Table 7, read-out: ERK1/2 phosphorylation EC50

CCCC[C@H](NC(=O)[C@@H]1CCCN1C(=O)[C@@H](C)NC(=O)[C@H](CCCCN)NC(=O)C(C)(C)NC(=O)[C@H](CO)NC(=O)[C@@H](CC(C)C)NC(=O)[C@H](CCCNC(=N)N)NC(=O)[C@@H]1CCCN1C(=O)[C@H](CCCNC(=N)N)NC(C)=O)C(=O)N1CCC[C@H]1C(=O)N[C@@H](Cc1ccc(Br)cc1)C(=O)O [P26, N-Acetyl-Arg-Pro-Arg-DLeu-Ser-Aib-Lys-DAla-Pro-Nle-Pro-(4-Br)Phe-OH] (HELM PEPTIDE1{[ac].R.P.R.[dL].S.[Aib].K.[dA].P.[Nle].P.[O=C(O)[C@H](Cc1ccc(Br)cc1)N[*:1]]}$$$$V2.0)
EC50 (rat apelin receptor-EGFP [1]; 20 min, read-out: EC50 apelin receptor internalization): 2.11 ± 1.14 nM
maximal relaxant effect [2]: 93±3%
potency (pD2) of relaxation [2]: 6.27±0.42
Ki (rat apelin receptor-EGFP [3]; [125I]pE13F binding I (nM), Table 2): 2.11 ± 0.4 nM
IC50 (rat apelin receptor-EGFP [4]; [10]): 4.4 ± 0.9 nM
IC50 (rat apelin receptor-EGFP [4]; [11]): 2.22 ± 1 nM
half-life at 5 μM (in vitro): 86 min
ERK1/2 EC50 times higher than K17F (rat apelin receptor-EGFP [5]): 18 times
EC50 (rat apelin receptor-EGFP [5]; 10 min, read-out: EC50 ERK1/2 phosphorylation): 71.3 ± 19.1 nM
EC50 (rat apelin receptor-EGFP [5]; [12]): 72.1 ± 19.6 nM

CCCC[C@H](NC(=O)[C@@H]1CCCN1C(=O)[C@@H](C)NC(=O)[C@H](CCCCN)NC(=O)C(C)(C)NC(=O)[C@H](CO)NC(=O)[C@@H](CC(C)C)NC(=O)[C@H](CCCNC(=N)N)NC(=O)[C@@H]1CCCN1C(=O)[C@H](CCCNC(=N)N)NC(=O)[C@@H](CCC(N)=O)NC(=O)[C@H](CCCNC(=N)N)NC(=O)[C@@H](CCCNC(=N)N)NC(=O)[C@H](Cc1ccccc1)NC(=O)[C@H](CCCCN)NC(C)=O)C(=O)N1CCC[C@H]1C(=O)N[C@@H](Cc1ccc(Br)cc1)C(=O)O [P92, N-Acetyl-Lys-Phe-DArg-Arg-DGln-Arg-Pro-Arg-DLeu-Ser-Aib-Lys-DAla-Pro-Nle-Pro-(4Br)Phe-OH] (HELM PEPTIDE1{[ac].K.F.[dR].R.[dQ].R.P.R.[dL].S.[Aib].K.[dA].P.[Nle].P.[O=C(O)[C@H](Cc1ccc(Br)cc1)N[*:1]]}$$$$V2.0)
agonist behaviour towards apelin receptor internalization (rat apelin receptor-EGFP [1]): full agonist
EC50 (rat apelin receptor-EGFP [1]; Table 2, read-out: Internalization EC50): 0.38 ± 0.11 nM
arteriolar diameter after addition to Ang II-preconstricted arterioles ([6]; 500 nM, 1 nM Ang II, from 87.6±1.9% with Ang II, percentage of controls): 98.1±2.5%
vasorelaxant effect in the presence of L-NAME ([6]; L-NAME, NO synthase inhibitor): blocked
maximal relaxant effect [2]: 100±1%
potency (pD2) of relaxation [2]: 7.68±0.57
effect on plasma AVP levels in euhydrated mice ([7]; euhydrated mice, supramaximal dose 1 μg i.c.v.): no effect on plasma AVP levels
maximal decrease in AVP release ([7]; water-deprived mice, 0.1 μg i.c.v.): −85%
IC50 (rat apelin receptor-EGFP [3]; Table 1): 0.21 ± 0.13 nM
Ki (rat apelin receptor-EGFP [3]; competition with [125I]pE13F, CHO membranes, read-out: Ki for the apelin receptor (affinity)): 0.21 nM and 0.2 nM and 0.09 nM
duration of the hypotensive effect, fold higher than K17F ([8]; 15 nmol i.v.): 3 fold
maximal hypotensive response, fold higher than K17F ([8]; 15 nmol i.v.): 3 fold
return to baseline after injection ([8]; 15 nmol/rat i.v.): 10.8 min
AUC of BP response ([8]; 100 nmol i.v., 15 minutes following injection): −34303±4003 mmHg·s
decrease in MABP ([8]; 100 nmol/rat i.v.): 55.4 mmHg
plateau value after maximal decrease ([8]; 100 nmol/rat i.v.): −20 mmHg
time of return to plateau value ([8]; 100 nmol/rat i.v.): around 35 min
plateau value after maximal decrease ([8]; 10 or 15 nmol i.v.): −25 mmHg
time of return to plateau value ([8]; 10 or 15 nmol i.v.): around 33 min
Maximal decrease in BP (mmHg) ([8]; Table 5, 15 nmol i.v.): −20.8 mmHg
Time For maximal BP decrease ([8]; Table 5, 15 nmol i.v.): 1.6 min
Time to return to a plateau value ([8]; Table 5, 15 nmol i.v.): 10.8 min
plateau value reached (in brackets) ([8]; Table 5, 15 nmol i.v.): −12 mmHg
ED50 decrease of MABP ([8]; i.v. 5-100 nmol/rat): 29.5 nmol
agonist behaviour on inhibition of cAMP production induced by forskolin (rat apelin receptor-EGFP [4]): full agonist
IC50 (rat apelin receptor-EGFP [4]; [10]): 0.2 ± 0.06 nM
IC50 (rat apelin receptor-EGFP [4]; Table 1, read-out: cAMP production IC50): 0.62 ± 0.77 nM
IC50 (rat apelin receptor-EGFP [4]; [11]): 0.56 ± 0.32 nM
half-life at 5 μM (in vitro): 24 min
chronotropic effect [9]: No chronotropic effect
effect on cardiac contractility (developed pressure) ([9]; K17F 0.01 to 300 nM, P92 200 and 400 nM): increase cardiac contractility with an amplitude similar to K17F
selectivity towards the AT1 receptor with respect to the apelin receptor (factor) (AT1 receptor): 100
EC50 (rat apelin receptor-EGFP [5]; [12]): 3.42 ± 2.41 nM
